Reference: US20210379062A1, “The use of a H3R inverse agonist for the treatment of excessive daytime sleepiness associated with parkinson's disease (PD)” (Novartis AG, priority 2018, published 2021)
Read-outs that look alike come from different tables or passages of the source.

What was measured:
Rat brain and plasma PK = type: in vivo; conditions: 10 mg/kg oral, rats
[1] = test system: tele-methylhistamine (tMeHA); experiment: Ex vivo PD determination: brain tele-methylhistamine time course in rats; set-up: species or system rat; conditions: 10 mg/kg oral; for effect on tMeHA levels: brain
Method: Male Sprague-Dawley rats (Shanghai SLAC Laboratory Animal Co. LTD) of 6-7 weeks age were used. Animals were housed in a temperature and humidity-controlled environment on a 12 h light/dark. All animals had free access to food and water. All procedures were approved by Institutional Animal Care and Use Committee of ChemPartner Co., LTD (IACUC Protocol NO: A998HL0002).
For bioanalysis of brain tissue tele-methylhistamine samples were further processed.
One aliquot of the stock solution was diluted using ethanol/phosphate buffer pH 7.4 (85:15, v/v) to achieve a series working solutions. The brain homogenate was centrifuged at 12000 rpm for 5 min at 4° C. Then 10 μL supernatant of the brain homogenate sample was added to 60 μL internal standard (d3-1-methyl-histamine, 20 ng/mL). The mixture was vortexed for 2 min and centrifuged at 12000 rpm for 5 min at 4° C. Finally, 60 μL supernatant was added and 3 μL supernatant was injected into LC-MS/MS for analysis (Agilent 6410, triple quadrupole mass spectrometer, Mobile phase A: H2O— 0.1% NH3, Mobile phase B: methanol— 0.1% NH3, Column: Ultimate XB-C18 (2.1×50 mm, 5 μm, Flow rate: 0.45 mL/min, temperature: 40° C.).

[2] = target: T1, Human histamine H3 receptor (Homo sapiens, UniProt Q9Y5N1); experiment: Radioligand binding assay with [3H]-N-α-methylhistamine; conditions: human recombinant H3R, 1.0 nM [3H]-N-α-methylhistamine, Cheng-Prusoff
T1 construct: purchased PerkinElmer
Method: Human histamine H3 receptor membrane (PerkinElmer) were incubated with 1.0 nM [^3H]—N-α-methylhistamine (PerkinElmer) in the presence or absence of increasing concentrations of ligands for H3 receptor competition binding. The binding incubations were in a final volume of 0.1 ml buffer (50 mMTris pH 7.5, 5 mM MgCl2) at 28° C. for 120 minutes. Thioperamide (10 μM) was used to define non-specific binding.
All binding reactions were terminated by transferring 70 μl binding reaction from the reaction plate into filtration plates (Zeba 96-well Spin Desalting Plates, Thermo Scientific), followed by centrifugation at 1000 g for 2 min to collect the protein with bound radioligand. 200 μl of microscint-40 were added to determine the bound radiolabel by a Wallac Microbeta Trilux 2450 (Perkin Elmer). For all radioligand competition binding assays, IC50 values and Hill slopes were determined by GraphPad Prism: log(inhibitor) vs. response with variable slope. Ki was calculated using the equation in Biochem. Pharmacol. 1973. 22 (23), 3099-3108, from Cheng and Prusoff: Ki=IC50/{1+([radioligand]/Kd)}.

H3 receptor = experiment: Ex vivo receptor occupancy assay in rat frontal cortex; conditions: rats; for dose that resulted in H3 receptor occupancy of 80-90%: oral dosing, 1 h after compound administration
Method: Male Sprague-Dawley rats (from Shanghai SLAC Laboratory Animal CO. LTD) at the age of 5-6 weeks were used. The animals were housed in a temperature and humidity-controlled environment on a 12 h light/dark cycle with food and water available ad libitum. All the procedures were approved by Institutional Animal Care and Use Committee of Chempartner Co., LTD (IACUC Protocol NO: A998HL0076).
Compounds were dissolved in 50 mM citrate buffer (pH 3.5), or saline. The compound was then diluted stepwise to the final concentration with vehicle. Animals were dosed by p.o. or i.v. in 1 ml/kg bodyweight.
At each time point, rats were decapitated immediately. Intact brain was removed, immersed and washed in pre-cooled saline. After drying with filter paper, frontal cortex was dissected with a double-blade with an about 30° angle starting at ⅓ of anterior rat brain (weight of most brain tissues around 70±10 mg). Brain tissue was transferred into a pre-weighed tube with homogenizer beads. The tubes were weighed again and the tissue net weight was recorded. Tissue sampling was done on ice with intervals of 1 min. Then, 50 mM HEPES (Gibco® by Life Technologies) buffer were added (equivalent to 3.75 μl/mg tissue weight) followed by homogenization (frequency 30/sec for 20 sec, TissueLyser, Quiagen).
The crude homogenate samples of rat frontal cortex were used to measure H3 receptor binding as described above with [^3H]—N-α-methylhistamine as radioligand. The protein concentration of each sample was determined by Pierce BCA Protein Assay Kit (Thermo).
The cortical homogenate was added to a 96-well plate containing [^3H]—N-α-methylhistamine (0.1 nM), in a volume of 0.2 ml (final protein concentration 4 μg/μl), incubated at 28° C. for 15 min and the reaction was stopped by rapid filtration using a filtration plate (Millipore multiscreen GF/B plate). The filters were washed three times with ice-cold wash buffer (50 mM Tris, pH 7.5) and 250 μl of Microscint-40 were added followed by determination of the bound radiolabel with a Wallac Microbeta Trilux 2450 (Perkin Elmer). Nonspecific binding was determined in the presence of 10 μM thioperamide. Each data point was obtained from a total of at least four animals. The inhibition of specific [^3H]NAMH binding, calculated as relative to vehicle-treated samples, was determined to provide an indication of receptor occupancy by the compound. The dose-dependent % RO and time course were analyzed using GraphPad Prism. The dose response was fit using GraphPad Prism: log(inhibitor) vs. response with variable slope.

[3] = cited from earlier work
[4] = 100-200 mg/day, two weeks treatment, excessive sleepiness associated with PD

T1 sequence (Q9Y5N1 whole entry): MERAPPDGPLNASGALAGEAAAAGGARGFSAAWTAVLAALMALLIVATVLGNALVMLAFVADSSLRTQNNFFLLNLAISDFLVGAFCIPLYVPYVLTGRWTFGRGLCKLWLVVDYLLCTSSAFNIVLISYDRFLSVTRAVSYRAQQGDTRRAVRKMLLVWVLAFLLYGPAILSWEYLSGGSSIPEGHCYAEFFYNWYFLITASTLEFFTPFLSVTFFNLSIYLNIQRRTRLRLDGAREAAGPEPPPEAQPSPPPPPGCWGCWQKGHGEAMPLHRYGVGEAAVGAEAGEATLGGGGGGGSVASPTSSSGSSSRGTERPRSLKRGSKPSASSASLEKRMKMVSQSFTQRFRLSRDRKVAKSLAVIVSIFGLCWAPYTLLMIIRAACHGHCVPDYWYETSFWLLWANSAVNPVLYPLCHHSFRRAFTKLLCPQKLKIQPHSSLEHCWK

Compound | rate of exposure-decline in brain, relative to Compound (I) (Rat brain and plasma PK) | total brain exposure (Rat brain and plasma PK) | brain exposure (Rat brain and plasma PK; 8 h time point) | time at which tMeHA increase is first observed [1] [h] | tMeHA level at 8 h ([1]; 8 h) | effect on tMeHA levels [1] | Ki [2] [nM] | RO (H3 receptor; 10 mg/kg oral, 7 h) [%] | initial RO (H3 receptor; 10 mg/kg oral, time not given) [%] | dose that resulted in H3 receptor occupancy of 80-90% (H3 receptor) [mg/kg] | Epworth Sleeping Scale scores [3, 4] | sleep latency in the Maintenance of Wakefulness Test [3, 4] | Epworth Sleeping Scale scores ([3]; 200-400 mg/day for four weeks) | initial RO (H3 receptor; 300 mg/kg oral, 0.5 h) [%] | RO (H3 receptor; 300 mg/kg oral, 8 h after compound administration) [%]
O=C(c1ccc(CN2CCOCC2)cc1)N1CCN(C2CC2)CC1 [bavisant, reference compound] | much slower | very high | high | 1 | stayed elevated | delayed increase | 102 | 37 | 90 | 10 | – | – | – | – | –
NC(=O)C[S+]([O-])C(c1ccccc1)c1ccccc1 (stereo not drawn) [modafinil, 2-(benzhydrylsulfinyl)acetamide] | – | – | – | – | – | – | – | – | – | – | improved | but not sleep latency | no improvement | – | –
Clc1ccc(CCCOCCCN2CCCCC2)cc1 [pitolisant, reference compound] | – | very low | – | – | – | no increase | – | – | – | 300 | – | – | – | ~90 | 40
